# Data from PMC3982195 (The FEBS journal, 2014).
# Experiments:
# [1] = target: T1, cytosolic nucleotidase II (LpcN-II) (Legionella pneumophila, UniProt Q5ZZB6); assay type: biochemical
# [2] = target: T1, cytosolic nucleotidase II (LpcN-II); assay type: biochemical; remark: listed apart in the source
# [3] = target: T1, cytosolic nucleotidase II (LpcN-II); experiment: biochemical; assay type: binding
# [4] = target: T1, cytosolic nucleotidase II (LpcN-II); assay type: biochemical; remark: listed apart in the source
# [5] = system: O=[N+]([O-])c1ccc(OP(=O)(O)O)cc1; experiment: purified protein
# T1 sequence (Q5ZZB6 1-459 limits assumed): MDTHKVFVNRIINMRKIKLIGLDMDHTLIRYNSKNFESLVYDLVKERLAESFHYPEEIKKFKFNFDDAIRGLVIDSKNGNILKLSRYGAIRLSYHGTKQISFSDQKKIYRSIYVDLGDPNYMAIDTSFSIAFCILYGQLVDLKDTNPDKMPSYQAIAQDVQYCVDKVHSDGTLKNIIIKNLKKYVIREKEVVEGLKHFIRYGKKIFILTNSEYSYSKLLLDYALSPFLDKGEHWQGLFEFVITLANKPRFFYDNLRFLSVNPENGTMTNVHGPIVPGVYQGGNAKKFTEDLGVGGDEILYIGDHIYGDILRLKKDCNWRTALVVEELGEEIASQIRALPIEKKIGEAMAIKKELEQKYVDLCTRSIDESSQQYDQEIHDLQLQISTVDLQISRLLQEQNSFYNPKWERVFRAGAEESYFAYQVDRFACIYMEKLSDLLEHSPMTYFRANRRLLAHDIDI
compound,measurement,setting,value
O=c1[nH]cnc2c1ncn2[C@@H]1O[C@H](COP(=O)(O)OP(=O)(O)OP(=O)(O)O)[C@@H](O)[C@H]1O [ITP],competitive reduction of GTP activation of pNPP hydrolysis,[1],indicate that IMP and ITP bind to the GTP-binding site
Nc1nc2c(ncn2[C@@H]2O[C@H](COP(=O)(O)OP(=O)(O)O)[C@@H](O)[C@H]2O)c(=O)[nH]1 [GDP],activation of pNPP hydrolysis; competition with GTP,[2],GDP was also found to compete for binding to the GTP binding site
Nc1nc2c(ncn2[C@@H]2O[C@H](COP(=O)(O)OP(=O)(O)OP(=O)(O)O)[C@@H](O)[C@H]2O)c(=O)[nH]1 [GTP],Kd,[3],4.1 ± 0.7 mM
Nc1nc2c(ncn2[C@H]2C[C@H](O)[C@@H](COP(=O)(O)OP(=O)(O)OP(=O)(O)O)O2)c(=O)[nH]1 [dGTP],activation of pNPP hydrolysis by purified enzyme,[4],"GTP, dGTP, and GDP showed activation of LpcN-II activity"
cytosolic nucleotidase II (LpcN-II) (Legionella pneumophila subsp. pneumophila str. Philadelphia 1),K0.5,[5],5.1 ± 0.9 mM
same,kcat/Km,[5],0.1 M⁻¹ s⁻¹
